Where a name gives a salt, the structure may show the parent alone.
Experiments:
[1] = molecular target: T1, recombinant guanylate cyclase reporter cell line (Rattus norvegicus, UniProt P19686+P20595); assay: Effect on a recombinant guanylate cyclase reporter cell line (B-2); type: cell-based; conditions: MEC = minimum effective concentration, in some cases mean values for individual determinations
T1 construct: expressed in transfected cells
T1 sequence (P19686 1-690): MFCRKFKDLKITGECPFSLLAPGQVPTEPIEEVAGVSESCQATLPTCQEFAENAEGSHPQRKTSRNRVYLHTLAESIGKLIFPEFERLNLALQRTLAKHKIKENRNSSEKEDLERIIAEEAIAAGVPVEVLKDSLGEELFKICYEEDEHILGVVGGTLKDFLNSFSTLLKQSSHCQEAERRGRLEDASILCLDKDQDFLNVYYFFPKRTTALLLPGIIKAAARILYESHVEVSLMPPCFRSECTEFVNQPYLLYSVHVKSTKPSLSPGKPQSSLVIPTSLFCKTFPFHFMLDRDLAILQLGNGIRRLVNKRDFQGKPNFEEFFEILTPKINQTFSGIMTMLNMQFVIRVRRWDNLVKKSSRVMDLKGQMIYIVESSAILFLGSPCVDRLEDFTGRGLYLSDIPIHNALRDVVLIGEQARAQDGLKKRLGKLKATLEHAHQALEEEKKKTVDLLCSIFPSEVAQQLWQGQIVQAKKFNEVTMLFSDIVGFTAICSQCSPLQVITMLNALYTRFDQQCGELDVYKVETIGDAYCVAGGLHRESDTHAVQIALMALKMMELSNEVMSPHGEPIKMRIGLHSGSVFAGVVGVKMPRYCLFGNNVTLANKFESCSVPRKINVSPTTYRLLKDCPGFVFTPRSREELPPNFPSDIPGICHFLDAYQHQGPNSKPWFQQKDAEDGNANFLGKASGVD
T1 sequence (P20595 1-619): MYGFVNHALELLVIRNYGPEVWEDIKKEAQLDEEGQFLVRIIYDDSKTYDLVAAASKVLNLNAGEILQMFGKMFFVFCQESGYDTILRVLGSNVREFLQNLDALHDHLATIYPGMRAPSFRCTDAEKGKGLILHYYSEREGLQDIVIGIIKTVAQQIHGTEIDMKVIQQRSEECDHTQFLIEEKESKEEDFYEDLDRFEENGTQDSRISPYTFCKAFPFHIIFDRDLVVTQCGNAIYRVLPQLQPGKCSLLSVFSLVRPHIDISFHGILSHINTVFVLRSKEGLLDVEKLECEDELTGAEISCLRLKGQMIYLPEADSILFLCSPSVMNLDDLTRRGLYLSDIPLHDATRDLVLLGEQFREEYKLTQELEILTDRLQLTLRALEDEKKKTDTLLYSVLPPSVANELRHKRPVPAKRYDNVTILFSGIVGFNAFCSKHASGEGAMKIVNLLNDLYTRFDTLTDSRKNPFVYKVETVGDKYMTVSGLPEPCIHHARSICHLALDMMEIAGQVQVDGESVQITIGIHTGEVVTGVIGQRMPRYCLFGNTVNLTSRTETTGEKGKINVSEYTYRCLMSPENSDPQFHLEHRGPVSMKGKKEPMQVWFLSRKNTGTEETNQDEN
In short: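 Cellular guanylate cyclase activity measured in a recombinant reporter cell line expressing rat soluble guanylate cyclase subunits. Values are minimum effective concentrations (MEC), some as means of individual determinations.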

[2] = molecular target: T2, human phosphodiesterase 5 (PDE 5) (Homo sapiens, UniProt O76074); assay: Inhibition of human phosphodiesterase 5 (PDE 5) (B-3); type: biochemical; conditions: PDE 5 preparation from human platelets; [8-3H] cGMP substrate, SPA; in some cases means of individual determinations
T2 construct: PDE 5 preparations are obtained from human platelets by disruption; from tissue; host or cells: human platelets (Mono Q ion exchange fractions with PDE 5 activity)
In short: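 Enzyme partially purified from human platelets by Mono Q ion exchange; [8-3H]cGMP substrate (0.025 μCi), Tris-HCl pH 7.5 with MgCl2/EDTA, <70% conversion, 60 min at room temperature. Compounds tested at 4 to 0.0018 μM final; yttrium SPA bead read-out, IC50 from concentration–% inhibition plot.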

MEC [1] | IC50 [2] | SMILES
0.3 µM | 4.3 nM | Cc1nc2c(OCc3c(F)ccc(F)c3F)cccn2c1-c1nc2c(c(C(N)=O)n1)C(C)(C)C(=O)N2 [Example 53, 5,5-Dimethyl-2-{2-methyl-8-[(2,3,6-trifluorobenzyl)oxy]imidazo[1,2-a]pyridin-3-yl}-6-oxo-6,7-dihydro-5H-pyrrolo[2,3-d]pyrimidine-4-carboxamide]
10 µM | 420 nM | Cc1nc2c(OCc3c(F)ccc(F)c3F)cccn2c1-c1nc2c(c(C(=O)O)n1)C(C)(C)C(=O)N2 [Example 54, 5,5-Dimethyl-2-{2-methyl-8-[(2,3,6-trifluorobenzyl)oxy]imidazo[1,2-a]pyridin-3-yl}-6-oxo-6,7-dihydro-5H-pyrrolo[2,3-d]pyrimidine-4-carboxylic acid]
0.3 µM | 4 nM | Cc1nc2c(OCc3c(F)cccc3F)cccn2c1-c1nc2c(c(C(=O)NC3CC3)n1)C(C)(C)C(=O)N2 [Example 55, N-Cyclopropyl-2-{8-[(2,6-difluorobenzyl)oxy]-2-methylimidazo[1,2-a]pyridin-3-yl}-5,5-dimethyl-6-oxo-6,7-dihydro-5H-pyrrolo[2,3-d]pyrimidine-4-carboxamide]
0.3 µM | 1.3 nM | Cc1nc2c(OCc3c(F)cccc3F)cccn2c1-c1nc2c(c(C(=O)NCC(C)(C)O)n1)C(C)(C)C(=O)N2 [Example 56, 2-{8-[(2,6-difluorobenzyl)oxy]-2-methylimidazo[1,2-a]pyridin-3-yl}-N-(2-hydroxy-2-methylpropyl)-5,5-dimethyl-6-oxo-6,7-dihydro-5H-pyrrolo[2,3-d]pyrimidine-4-carboxamide]
3 µM | 5.2 nM | Cc1nc2c(OCc3c(F)ccc(F)c3F)cccn2c1-c1nc2c(c(C(=O)NCC(C)(C)N)n1)C(C)(C)C(=O)N2 [Example 58, N-(2-amino-2-methylpropyl)-5,5-dimethyl-2-{2-methyl-8-[(2,3,6-trifluorobenzyl)oxy]imidazo[1,2-a]pyridin-3-yl}-6-oxo-6,7-dihydro-5H-pyrrolo[2,3-d]pyrimidin-4-carboxamide trifluoroacetate]
0.3 µM | 1.7 nM | Cc1nc2c(OCc3c(F)ccc(F)c3F)cccn2c1-c1nc2c(c(C(=O)NCCC(F)(F)F)n1)C(C)(C)C(=O)N2 [Example 59, 5,5-dimethyl-2-{2-methyl-8-[(2,3,6-trifluorobenzyl)oxy]imidazo[1,2-a]pyridin-3-yl}-6-oxo-N-(3,3,3-trifluoropropyl)-6,7-dihydro-5H-pyrrolo[2,3-d]pyrimidine-4-carboxamide]
3 µM | 420 nM | Cc1nc2c(OCc3c(F)ccc(F)c3F)cccn2c1-c1nc2c(c(C(=O)N3CCN(C)CC3)n1)C(C)(C)C(=O)N2 [Example 60, 5,5-dimethyl-4-[(4-methylpiperazin-1-yl)carbonyl]-2-{2-methyl-8-[(2,3,6-trifluorobenzyl)oxy]imidazo[1,2-a]pyridin-3-yl}-5,7-dihydro-6H-pyrrolo[2,3-d]pyrimidin-6-one trifluoroacetate]
10 µM | 28 nM | Cc1nc2c(OCc3c(F)ccc(F)c3F)cccn2c1-c1nc2c(c(C(=O)N3CCNCC3)n1)C(C)(C)C(=O)N2 [Example 64, 5,5-dimethyl-2-{2-methyl-8-[(2,3,6-trifluorobenzyl)oxy]imidazo[1,2-a]pyridin-3-yl}-4-(piperazin-1-ylcarbonyl)-5,7-dihydro-6H-pyrrolo[2,3-d]pyrimidin-6-one trifluoroacetate]
3 µM | 68 nM | Cc1nc2c(OCc3c(F)cccc3F)cccn2c1-c1nc(CNS(C)(=O)=O)c2c(n1)NC(=O)C2(C)C [Example 65, N-[(2-{8-[(2,6-Difluorobenzyl)oxy]-2-methylimidazo[1,2-a]pyridin-3-yl}-5,5-dimethyl-6-oxo-6,7-dihydro-5H-pyrrolo[2,3-d]pyrimidin-4-yl)methyl]methanesulphonamide]
3 µM | 48 nM | Cc1nc2c(OCc3c(F)cccc3F)cccn2c1-c1nc(CNC(=O)C2CC2)c2c(n1)NC(=O)C2(C)C [Example 66, N-[(2-{8-[(2,6-Difluorobenzyl)oxy]-2-methylimidazo[1,2-a]pyridin-3-yl}-5,5-dimethyl-6-oxo-6,7-dihydro-5H-pyrrolo[2,3-d]pyrimidin-4-yl)methyl]cyclopropanecarboxamide]
0.03 µM | 47 nM | Cc1nc2c(OCc3c(F)cccc3F)cc(Cl)cn2c1-c1nc(N)c2c(n1)NC(=O)C2(C)C [Example 67, 4-Amino-2-{6-chloro-8-[(2,6-difluorobenzyl)oxy]-2-methylimidazo[1,2-a]pyridin-3-yl}-5,5-dimethyl-5,7-dihydro-6H-pyrrolo[2,3-d]pyrimidin-6-one]
1 µM | 260 nM | Cc1nc2c(OCc3c(F)cccc3F)cccn2c1-c1nnc2c(n1)NC(=O)C2(C)C [Example 68, 3-{8-[(2,6-Difluorobenzyl)oxy]-2-methylimidazo[1,2-a]pyridin-3-yl}-7,7-dimethyl-5,7-dihydro-6H-pyrrolo[2,3-e][1,2,4]triazin-6-one]
1 µM | 790 nM | Cc1cc(OCc2c(F)cccc2F)c2nc(C)c(-c3nnc4c(n3)NC(=O)C4(C)C)n2c1 [Example 69, 3-{8-[(2,6-Difluorobenzyl)oxy]-2,6-dimethylimidazo[1,2-a]pyridin-3-yl}-7,7-dimethyl-5,7-dihydro-6H-pyrrolo[2,3-e][1,2,4]triazin-6-one]
1 µM | 30 nM | Cc1nc2c(OCc3c(F)ccc(F)c3F)cccn2c1-c1nc2c(c(-c3cc[nH]n3)n1)C(C)(C)C(=O)N2 [Example 74, 5,5-Dimethyl-2-{2-methyl-8-[(2,3,6-trifluorobenzyl)oxy]imidazo[1,2-a]pyridin-3-yl}-4-(1H-pyrazol-5-yl)-5,7-dihydro-6H-pyrrolo[2,3-d]pyrimidin-6-one]
10 µM | 370 nM | Cc1nc2c(OCc3c(F)ccc(F)c3F)cccn2c1-c1ncc2c(n1)NC(=O)C2(C)C [Example 75, 5,5-Dimethyl-2-{2-methyl-8-[(2,3,6-trifluorobenzyl)oxy]imidazo[1,2-a]pyridin-3-yl}-5,7-dihydro-6H-pyrrolo[2,3-d]pyrimidin-6-one formate]
